Source: patent publication US20090214426A1, “Assay Method” (priority 2004, published 2009)
“Also recorded” adds a separate entry of the source.

What was measured:
fibromyalgia patients = conditions: randomised controlled clinical trials (Mease 2003); cited from earlier work
CD naïve rat = assay: Open field test in naïve rats (anxiogenic validation); format: in vivo
Experimental: (§1) The spontaneous locomotor activity of rats in an open field is monitored for 30 minutes in a 70×70 cm dark arena (Prut ans Beizung, 2003, Eur J Pharmacol. 463:3-33). Each animal was placed in the centre of the arena and a video camera recorded movement of the animal. Four rats are recorded simultaneously in four different cages. Data are collected and analysed by Ethovision 3.0 software (Noldus IT, Netherdland) and the exploratory behaviour is expressed as number of entries in the central area of the arena (23×23 cm).
To measure the anxiety-like behaviour in CCI rats the open field test is carried out in normal light conditions (100 Lux). […] To confirm that the environmental conditions we set up, could let us measure an anxiety-like behaviour, the activity of the anxiogenic compound mCPP was tested in CD naïve rat.

CCI rats [1] = assay: Rota rod test in CCI rats; format: in vivo, rat; conditions: analgesic doses; selected rats with mean performance <80 seconds; data not shown
Experimental: (§2) The CCI of sciatic nerve is performed as previously described by Bennett and Xie (1988). Animals are anaesthetized with a 2% isofluorane/O2 mixture maintained during surgery via a nose cone and the common sciatic nerve is exposed at the middle of the right thigh by blunt dissection through biceps femoris. Proximal to the sciatic trifurcation, about 7 mm of nerve is freed of adhering tissue and 4 ligatures (4-0 silk) are tied loosely around it with about 1 mm spacing. Ligatures are tied such that the circulation through the superficial epineural vasculature is retarded but not arrested. The incision is then closed in layers and the wound treated with topical antibiotics. In the sham-operated group an identical dissection is performed on the ipsilateral paw except the sciatic nerve is not ligated.
The rota rod test consists of 4 rotatable drums divided by flanges with a motor-driven drum which is capable of acceleration (Ugo Basile, Comerio, VA, Italy). For a given trial, a rat is placed on the rotating rod and the rotation speed is accelerated from 4 to 16 revolutions per minute (rpm) in 2 minutes. The time of maximal performance is set at 120 seconds (Voikar V et al, 2001, Physiol Behav., 2001; 72:271-81). […]

CCI rats [2] = assay: Beam walking test in CCI rats; format: in vivo, rat; conditions: for efficacy on reversing beam walking impairments: summary statement, dose not stated
Experimental: as §2
The Beam walking apparatus consists of a 1.5 m long beam with a 2.5×2.5 cm square cross section, elevated 75 cm above the floor. The test is performed in dim light conditions (18 lux). A light source (520 lux) is placed at the start-end of the beam while a dark box at the other side (Goldstein & Davis, 1990, J Neurosci Methods; 31:101-107). Rats are trained over a period of 2 days to cross the beam. On the day of the test an additional training section is performed before the proper test trial was performed. […] Rats that cross the beam without using the ipsilateral paw are given a maximal number of foot slips.
Starting from 3 weeks post surgery, CCI rats are selected based on their performances. Only those showing a number of foot slips of 2 or above are selected and used for the pharmacological validation of the test. A group of naïve CD rats are treated with vehicle and used as positive controls. […]

CCI rats [3] = assay: Open field test in CCI rats; format: in vivo, rat; conditions: for reversal of pain-related anxiety-like behaviour of CCI rats: summary statement, dose not stated
Experimental: as §2, §1
To measure the anxiety-like behaviour in CCI rats the open field test is carried out in normal light conditions (100 Lux).
For a pharmacological validation of the model, CCI rats with a poor exploratory activity (entries≦6) are pre selected in the open field and a week later treated with diazepam (1 and 3 mg/kg, i.p.), tramadol (30 mpk, p.o.) or gabapentin (30-100 mg/kg, p.o.). Naïve CD vehicle-treated rats are used as positive control.

[4] = test system: patients with diabetic neuropathy and post herpetic neuralgia; conditions: randomised controlled clinical trials (Backonja 1998; Rowbotham 1998); cited from earlier work
CCI rats [5] = assay: Object recognition test in CCI rats; format: in vivo, rat; conditions: tramadol 100 mg/kg po, 3.5 hours post familiarization, tested 30 minutes later
Experimental: as §2
The Object Recognition test was performed as described by Ennaceur and Delacour (1988). The apparatus consisted of a black circular arena 55 cm in diameter with 50 cm black walls. […]
Each animal was trained prior to testing; this involved handling and habituation of the rat to the arena for 5 minutes per session, twice a day for three consecutive days. […] The distance moved in the arena and the time spent exploring each object during familiarization and sample phases were recorded manually and automatically, respectively by the videotracking system (Noldus Ethovision 3.0, Netherland). […]

In the case of CC(C)C[C@H](CN)CC(=O)O [Pregabalin], the “QoL deficit of fibromyalgia patients” value (fibromyalgia patients) is given as “showed efficacy”.
For Clc1cccc(N2CCNCC2)c1 [mCPP], the “exploratory activity (number of entries)” value (CD naïve rat; mCPP 1-3 mg/kg i.p.) was “dose-dependent decrease”, the “number of entries in the centre of the arena” value (CD naïve rat; mCPP higher dose (3 mg/kg) i.p., vs 13±3 vehicle-treated) was 5±2 and the “rats that explored the centre less than 6 times” value (CD naïve rat; mCPP, compared to 16% in the control group) was “Seventy-five”.
For CN1CC[C@]23c4c5ccc(O)c4O[C@H]2[C@@H](O)C=C[C@H]3[C@H]1C5 [Morphine], the “rota rod performance of neuropathic rats” value (CCI rats [1]) was “did not improve; also recorded: did not showed improvement”, the “rats performance in the beam walking test” value (CCI rats [2]; morphine 1 mg/kg s.c. (lower dose)) was “not statistically different from the control value” and the “number of foot slips” value (CCI rats [2]; morphine 3 mg/kg s.c. (higher dose), 30 minutes post dosing, vs 6±1 baseline, p<0.05) was 3±1. For the same compound, the “number of foot slips” value (CCI rats [2]; morphine 3 mg/kg s.c. (higher dose), 1 hour post dosing, vs 5±1 baseline, p<0.05) was 2±1 and the “efficacy on reversing beam walking impairments” value (“efficacy” for short) (CCI rats [2]) was “show efficacy”.
In the case of NCC1(CC(=O)O)CCCCC1 [gabapentin], the “number of entries in the centre of the open field compared to CCI vehicle-treated group” value (CCI rats [3]; gabapentin 30 mg/kg p.o.) is reported as “increased”, the “anxiety-like behaviour of injured rats” value (CCI rats [3]; gabapentin 100 mg/kg p.o.) is reported as “completely reversed” and the “number of entries in the centre of the open field” value (CCI rats [3]; gabapentin 100 mg/kg p.o., 1 hour before the test, vs 14±2 naïve vehicle-treated group, NS) is reported as 12±2. The “exploratory activity of neuropathic rats” value (CCI rats [3]; gabapentin 30-100 mg/kg p.o.) was “improved”, the “reversal of pain-related anxiety-like behaviour of CCI rats” value (“reversal” for short) (CCI rats [3]) was “does” and the QoL of patients [4] was “demonstrated an improvement”.
With COc1cccc(C2(O)CCCCC2CN(C)C)c1 (stereo not shown) [Tramadol] the “reversal” value (CCI rats [3]) was “does not reverse”, the “pain-related anxiety-like behaviour of CCI rats (entries in centre)” value (CCI rats [3]; tramadol 30 mg/kg PO, 30 minutes before the test (FIG. 5A)) was “did not” and the “pain-related anxiety-like behaviour of CCI rats (entries in centre)” value (CCI rats [3]; tramadol 100 mg/kg (higher dose, data not shown)) was “did not”. The “rota rod performance of neuropathic rats” value (CCI rats [1]) was “did not improve; also recorded: did not showed improvement”, the “efficacy” value (CCI rats [2]) was “show efficacy” and the “performance of rats in the beam walking test” value (CCI rats [2]; tramadol 30 mg/kg p.o.) was “not significantly different from CCI controls”. For the same compound, the “number of foot slips” value (CCI rats [2]; tramadol 100 mg/kg p.o. (higher dose), 1 hour post drug administration, vs 6±1 CCI vehicle-treated group, p<0.01) was 1±1, the “ability of CCI rats to cross the beam” value (CCI rats [2]; tramadol 30-100 mg/kg p.o.) was “dose dependently improves” and the “cognitive dysfunction (memory/attention deficit) of neuropathic rats” value (CCI rats [5]) was “reversed”. The “discrimination index compared to vehicle-treated CCI rats” value (CCI rats [5]; P<0.01) was “significant increase”.
In the case of CN(C)CCC=C1c2ccccc2CCc2ccccc21 [Amitriptyline], the “neuropathic rats performance in the beam walking task” value (CCI rats [2]; amitriptyline 2 mg/kg (FIG. 2C)) is reported as “did not improve”, the “neuropathic rats performance in the beam walking task” value (CCI rats [2]; amitriptyline 20 mg/kg (data not shown)) is reported as “did not improve” and the “efficacy” value (CCI rats [2]) is reported as “does not”.
With CN1C(=O)CN=C(c2ccccc2)c2cc(Cl)ccc21 [Diazepam] the “pain-related anxiety-like behaviour of CCI rats (entries in centre)” value (CCI rats [3]; diazepam 1 mg/kg IP, 30 minutes before the test (FIG. 5A)) was “did not”, the “pain-related anxiety-like behaviour of CCI rats (entries in centre)” value (CCI rats [3]; diazepam 3 mg/kg (higher dose, data not shown)) was “did not” and the “reversal” value (CCI rats [3]) was “does not reverse”.
